Test [1] addresses T1, human glucocorticoid receptor-α [GRX] isoform (Homo sapiens, UniProt P04150).
T1 construct: host or cells: insect SF21 cells (baculovirus)
T1 sequence (P04150 1-777): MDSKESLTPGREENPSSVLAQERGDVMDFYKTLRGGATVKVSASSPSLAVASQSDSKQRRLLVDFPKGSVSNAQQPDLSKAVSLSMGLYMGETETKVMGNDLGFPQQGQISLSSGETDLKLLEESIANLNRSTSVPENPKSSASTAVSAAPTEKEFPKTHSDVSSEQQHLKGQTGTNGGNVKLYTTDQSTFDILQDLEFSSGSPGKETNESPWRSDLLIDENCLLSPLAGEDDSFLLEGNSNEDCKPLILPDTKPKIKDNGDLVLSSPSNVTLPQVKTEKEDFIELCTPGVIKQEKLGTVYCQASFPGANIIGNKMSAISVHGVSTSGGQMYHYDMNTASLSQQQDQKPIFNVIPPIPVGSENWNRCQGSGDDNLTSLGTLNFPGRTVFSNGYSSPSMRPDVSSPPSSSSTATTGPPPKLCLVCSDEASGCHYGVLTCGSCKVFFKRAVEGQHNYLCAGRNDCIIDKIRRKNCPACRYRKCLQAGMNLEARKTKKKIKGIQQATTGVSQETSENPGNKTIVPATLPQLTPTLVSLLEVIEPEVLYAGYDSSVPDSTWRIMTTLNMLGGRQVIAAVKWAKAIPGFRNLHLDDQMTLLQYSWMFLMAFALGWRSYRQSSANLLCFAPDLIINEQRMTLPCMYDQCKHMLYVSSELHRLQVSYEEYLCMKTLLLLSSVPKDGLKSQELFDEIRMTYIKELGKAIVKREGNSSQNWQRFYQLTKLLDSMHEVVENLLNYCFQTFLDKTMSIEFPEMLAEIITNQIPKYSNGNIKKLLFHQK
The test can be described thus: Radioligand binding with human glucocorticoid receptor cytosol ([3H]-dexamethasone competition).

For test [2], the target named is T2, human progesterone receptor-A [PRA] isoform (Homo sapiens, UniProt P06401).
T2 construct: host or cells: insect SF21 cells (baculovirus)
T2 sequence (P06401 1-769 isoform P06401-2): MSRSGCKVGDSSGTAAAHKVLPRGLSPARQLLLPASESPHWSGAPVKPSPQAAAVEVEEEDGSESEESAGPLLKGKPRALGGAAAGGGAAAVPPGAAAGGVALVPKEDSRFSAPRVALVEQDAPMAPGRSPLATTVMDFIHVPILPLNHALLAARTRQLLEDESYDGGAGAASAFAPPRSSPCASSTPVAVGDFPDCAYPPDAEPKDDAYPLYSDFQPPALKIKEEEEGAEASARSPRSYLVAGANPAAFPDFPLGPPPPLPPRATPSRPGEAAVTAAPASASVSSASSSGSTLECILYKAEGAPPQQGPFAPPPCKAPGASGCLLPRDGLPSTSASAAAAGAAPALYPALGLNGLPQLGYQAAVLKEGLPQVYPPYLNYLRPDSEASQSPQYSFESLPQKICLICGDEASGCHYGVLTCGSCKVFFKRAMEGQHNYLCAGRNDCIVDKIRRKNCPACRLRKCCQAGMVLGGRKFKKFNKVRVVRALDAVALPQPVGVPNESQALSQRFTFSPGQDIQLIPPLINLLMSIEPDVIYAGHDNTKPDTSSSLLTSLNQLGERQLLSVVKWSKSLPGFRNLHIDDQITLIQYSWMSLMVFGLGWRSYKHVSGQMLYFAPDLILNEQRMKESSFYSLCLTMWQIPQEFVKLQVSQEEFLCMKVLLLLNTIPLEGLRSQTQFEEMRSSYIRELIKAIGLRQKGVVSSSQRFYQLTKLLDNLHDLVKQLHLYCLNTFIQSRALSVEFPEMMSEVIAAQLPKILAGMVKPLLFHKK
The test can be described thus: Radioligand binding with human progesterone receptor cytosol ([3H]-progesterone competition). Conditions: PRA cytosol expressed in insect SF21 cells, [3H]Prog ~0.8 nM, 4° C. overnight; Ki by Cheng-Prusoff, KL ~4.5 nM; read-out: Ki (nM) PR.

Where [3] appears, read: GRX cytosol expressed in insect SF21 cells, [3H]-Dex ~0.9 nM, 4° C. overnight, Ki by Cheng-Prusoff, KL ~[…], read-out: Ki (nM) GR.

The values below come from patent publication US6506766B1 (Abbott Laboratories, priority 1998, dated 2003).

Like-named read-outs stand apart in the source and are kept apart here.

Turning to `COc1cccc2c1-c1ccc3c(c1C(C1=CCCCC1)O2)C(C)=CC(C)(C)N3` (stereo not drawn) [Example 325, trans 2,5-Dihydro-10-methoxy-5-(1-cyclohexenyl)-2,2,4-trimethyl-1H-[1]benzopyrano[3,4-f]quinoline], the Ki (usually a dissociation constant, usually derived from enzyme kinetics or from competition with a known ligand) in test [1] (Ki (nM) GR) was 24 nM; in test [2], at least 10000 nM.

For the compound `COc1cccc2c1-c1ccc3c(c1C(c1ccc(OC(C)=O)cc1)O2)C(C)=CC(C)(C)N3` (stereo not drawn) [Example 94, 4-(2,5-Dihydro-10-methoxy-2,2,4-trimethyl-1H-[1]benzopyrano[3,4-f]quinolin5-yl)phenolacetate (Ester)], the Ki is 43 nM in test [1] (setting [3]) and at least 10000 nM in test [2].

As to `COc1cccc2c1-c1ccc3c(c1[C@H]([C@H]1C=C(C)CCC1)O2)C(C)=CC(C)(C)N3` [Example 157, (−)-(5S,3′R) 2,5-Dihydro-10-methoxy-5-(1-methyl-3-cyclohexenyl)-2,2,4-trimethyl-1H-[1]benzopyrano[3,4-f]quinoline], the results for the inhibitory constant (Ki) in test [1] (setting [3]) and in test [2] were 1.5 nM and 433 nM, respectively.

For the compound `COc1cccc2c1-c1ccc3c(c1C(C1C=CCCC1)O2)C(C)=CC(C)(C)N3` (mixture of isomers) [Example 137], the inhibitory constant (Ki) in test [1] (Ki (nM) GR) was determined as 5.5 nM; in test [2], 2410 nM.

On to `COc1cccc2c1-c1ccc3c(c1C(c1cccc(Oc4ccc([N+](=O)[O-])cc4[N+](=O)[O-])c1)O2)C(C)=CC(C)(C)N3` (stereo not drawn) [Example 91, 5-[3-(2,4-Dinitrophenoxy)phenyl]-2,5-dihydro-10-methoxy-2,2,4-trimethyl-1H-[1]benzopyrano[3,4-f]quinoline], for which the inhibitory constant (Ki) in test [1] (setting [3]) was 17 nM; in test [2], at least 10000 nM.

Take `COc1cccc2c1-c1ccc3c(c1C(c1cccc(Br)c1)O2)C(C)=CC(C)(C)N3` (stereo not drawn) [Example 52, 5-(3-Bromophenyl)-2,5-dihydro-10-methoxy-2,2,4-trimethyl-1H-[1]benzopyrano[3,4-f]quinoline]: the results for the inhibitory constant (Ki) in test [1] (setting [3]) and in test [2] were 3 nM and 2270 nM, respectively.

As for `COc1cccc2c1-c1ccc3c(c1[C@H]([C@@H]1C=C(C)CCC1)O2)C(C)=CC(C)(C)N3` [Example 154], the values for the inhibitory constant (Ki) in test [1] (setting [3]) and in test [2] were 0.7 nM and at least 10000 nM, respectively.

Turning to `CC1=CC(C)(C)Nc2ccc3c(c21)[C@H]([C@H]1C=CCC1)Oc1ccc(O)c(Cl)c1-3` [Example 222, (−)2,5(S)-Dihydro-9-hydroxy-10-chloro-2,2,4-trimethyl-5-(3R-cyclopentenyl)-1H-[1]benzopyrano[3,4-f]quinoline], the inhibition constant (Ki) was 0.47 nM in test [1] (setting [3]) and 9.9 nM in test [2].

As for `COc1cc(F)cc2c1-c1ccc3c(c1C(c1ccccc1)O2)C(C)=CC(C)(C)N3` (stereo not drawn) [Example 232, 8-Fluoro-10-methoxy-5-phenyl-2,2,4-trimethyl-2,5-dihydro-1H-[1]benzopyrano[3,4-f]quinoline], the results for the inhibition constant (Ki) in test [1] (setting [3]) and in test [2] were 1.6 nM and 230 nM, respectively.

Turning to `COC(=O)/C=C/CC1Oc2cccc(OC)c2-c2ccc3c(c21)C(C)=CC(C)(C)N3` (stereo not drawn) [Example 194], the inhibition constant (Ki) in test [1] (setting [3]) is 7.7 nM; in test [2], at least 10000 nM.

As for `COc1c(O)ccc2c1-c1ccc3c(c1C(C1CCCC1)O2)C(C)=CC(C)(C)N3` (stereo not drawn) [Example 384, 2,5-Dihydro-9-hydroxy-10-methoxy-2,2,4-trimethyl-5-cyclopentyl-1H-[1]benzopyrano[3,4-f]quinoline], the figures for the Ki in test [1] (setting [3]) and in test [2] were 0.67 nM and 197 nM, respectively.

With `C/C=C/CC1Oc2cccc(OC)c2-c2ccc3c(c21)C(C)=CC(C)(C)N3` (stereo not drawn) [Example 198, (E) 2,5-Dihydro-10-methoxy-5-(2-butenyl)-2,2,4-trimethyl-1H-[1]benzopyrano[3,4-f]quinoline], the Ki in test [1] (setting [3]) stood at 0.65 nM; in test [2], 2130 nM.

Turning to `COc1cccc2c1-c1ccc3c(c1C(c1cc(F)c(F)c(F)c1)O2)C(C)=CC(C)(C)N3` (stereo not drawn) [Example 211], the inhibition constant (Ki) in test [1] (setting [3]) was 5.3 nM; in test [2], at least 10000 nM.

With `COc1c(O)ccc2c1-c1ccc3c(c1/C(=C/c1ccccn1)O2)C(C)=CC(C)(C)N3` [Example 369, Z-9-Hydroxy-10-methoxy-5-(2-picolinylidenyl)-2,2,4-trimethyl-2,5-dihydro-1H-[1]benzopyrano[3,4-f]quinoline], the Ki was 0.41 nM in test [1] (setting [3]) and 2530 nM in test [2].

`C=CCC1Oc2ccc(OC(=S)N(C)C)c(OC)c2-c2ccc3c(c21)C(C)=CC(C)(C)N3` (stereo not drawn) [Example 431, 9-(Dimethylaminothiocarbonyl)-oxy-10-methoxy-5-(3-propenyl)-2,2,4-trimethyl-1H-2,5-dihydro-[1]benzopyrano[3,4-f]quinoline]: the Ki in test [1] (setting [3]) was 113 nM; in test [2] it was at least 10000 nM.

As to `COc1c(O)ccc2c1-c1ccc3c(c1[C@H]([C@H]1C=CCCC1)O2)C(C)=CC(C)(C)N3` [Example 273], the inhibition constant (Ki) came out at 0.56 nM in test [1] (setting [3]) and 35.8 nM in test [2].

In the case of `C=CCC1Oc2ccc(OC(=O)CCCNC(C)=O)c(OC)c2-c2ccc3c(c21)C(C)=CC(C)(C)N3` (racemic) [Example 344, (+/−)2,5-Dihydro-9-(4-acetamidobutanoyloxy)-10-methoxy-2,2,4-trimethyl-5-allyl-1H-[1]benzopyranol[3,4-f]quinoline], the Ki was determined as 0.46 nM in test [1] (setting [3]) and 76.7 nM in test [2].

As for `COc1c(OC(=O)CCC(=O)N(C)C)ccc2c1-c1ccc3c(c1C(c1cccs1)O2)C(C)=CC(C)(C)N3` (stereo not drawn) [Example 425, 2,5-Dihydro-9-(4-N,N-dimethylamino-4-oxo-butanoyloxy)-10-methoxy-2,2,4-trimethyl-5-(2-thienyl)-1H-[1]benzopyrano[3,4-f]quinoline], the Ki in test [1] (setting [3]) came to 0.35 nM; in test [2], 3940 nM.

`COc1c(O)ccc2c1-c1ccc3c(c1[C@H](C1CCCC1)O2)C(C)=CC(C)(C)N3` [Example 264, (−)(S)5-Cyclopentyl-2,5-dihydro-9-hydroxy-10-methoxy-2,2,4-trimethyl-1H-[1]benzopyrano[3,4-f]quinoline]: the figures for the Ki in test [1] (setting [3]) and in test [2] were 0.51 nM and 307 nM, respectively.

Take `COc1cccc2c1-c1ccc3c(c1[C@@H]([C@H]1C=C(CO)CCC1)O2)C(C)=CC(C)(C)N3` (relative stereo) [Example 149]: the Ki in test [1] (setting [3]) is 2.7 nM; in test [2], 4060 nM.

`CCCc1ccc(C2Oc3cccc(OC)c3-c3ccc4c(c32)C(C)=CC(C)(C)N4)s1` (stereo not drawn) [Example 41, 2,5-Dihydro-10-methoxy-2,2,4-trimethyl-5-(5-propyl-2-thienyl)-1H-[1]benzopyrano[3,4-f]quinoline]: the inhibition constant Ki in test [1] (setting [3]) was 9.5 nM; in test [2] it was 3300 nM.

Take `C=CCC1Oc2ccc(O)c(OC)c2-c2ccc3c(c21)C(C)=CC(C)(C)N3` (stereo not drawn) [Example 235, 10-Methoxy-9-hydroxy-5-(3-propenyl)-2,2,4-trimethyl-1H-2,5-dihydro-[1]benzopyrano[3,4-f]quinoline]: the Ki in test [1] (setting [3]) is 0.94 nM; in test [2] it was 155 nM.

Consider `COc1cccc2c1-c1ccc3c(c1C(c1ccc(C)cc1)O2)C(C)=CC(C)(C)N3` (stereo not drawn) [Example 50, 2,5-Dihydro-10-methoxy-2,2,4-tnimethyl-5-(4-methylphenyl)-1H-[1]benzopyrano[3,4-f]quinoline], for which the inhibition constant Ki in test [1] (setting [3]) was 4.9 nM; in test [2] it was 9450 nM.

On to `COc1cccc2c1-c1ccc3c(c1[C@@H]([C@H]1C=C(CN(C)S(C)(=O)=O)CCC1)O2)C(C)=CC(C)(C)N3` (relative stereo) [Example 168, rel (5R, 3′R) 2,5-Dihydro-10-methoxy-5-(1-(N-methyl-N-methylsulfonylamino)methyl-3-cyclohexenyl)-2,2,4-trimethy-1H-[1]benzopyrano[3,4-f]quinoline], for which the Ki is 2.5 nM in test [1] (setting [3]) and at least 10000 nM in test [2].
